# Values quoted from earlier work, collected in patent US20210220455A1, “COMPOSITIONS AND METHODS FOR PERSONALIZED NEOPLASIA VACCINES” (The Broad Institute, Inc., priority 2013, published 2021).
# Key:
# healthy human volunteers = conditions: cited from earlier work
# [1] = test system: ovarian carcinoma patients; conditions: cited from earlier work
substance,measurement,setting,value
Polyinosinic-Polycytidylic Acid-poly-L-lysine Carboxymethylcellulose [poly-ICLC],differentially expressed genes versus placebo,"healthy human volunteers; 8 volunteers, one single s.c. administration vs 4 placebo subjects",up to 212 genes
same,safety in human volunteer study,"healthy human volunteers; human, in vivo",safe
same,generation of NY-ESO-1-specific CD4+ and CD8+ T-cell and antibody responses,[1]; 1.4 mg poly-ICLC and Montanide added to OLP vs OLP alone or OLP and Montanide,markedly enhanced
same,patients showing induction of CD4+ and CD8+ T cell and antibody responses to the peptide,[1]; poly-ICLC with NY-ESO-1 peptide vaccine and Montanide,> 90%
